Data: patent publication US20230117034A1, “PYRAZOLOTRIAZINES” (Bayer Aktiengesellschaft, priority 2019, published 2023)
pIC50: −log10 of the molar value. Like-named read-outs stand apart in the source and are kept apart here.

Experiments:
CDK9/CycT1 = molecular target: T1, CDK9/CycT1 (Homo sapiens, UniProt P50750); assay: CDK9/CycT1 high ATP kinase assay (TR-FRET, 2 mM ATP); format: biochemical; settings: 2 mM ATP (high ATP); median; read-out: CDK9/CyclinT1, 2 mM ATP (high ATP), IC50 (median)
T1 construct: Recombinant full-length His-tagged human CDK9 and CycT1; purchased Life Technologies PV4131; host or cells: insect cells
Procedure, shortened: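 Full-length His-tagged human CDK9/CycT1 (insect cell, ~0.5 μg/mL) preincubated 15 min at 22 °C with compound in Tris pH 8.0, MgCl2, DTT buffer before reaction with biotinylated peptide substrate at high ATP (2 mM).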

[1] = test system: MDA-MB-231, human breast cancer cells; assay: Proliferation assay MDA-MB-231 (crystal violet, 4 days); format: cell-based; settings: MDA-MB-231 cells, median, read-out: Prolif-MDA MB-231, IC50-[mol/l] (median)
Procedure, shortened: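 Growth was measured by crystal violet staining after cells had been treated with compounds (0.01-10 µmol/L, 0.1% DMSO) for 4 days, beginning 24 h after seeding. Values were normalized to a zero-point plate and to untreated controls, and IC50 values were derived by a four-parameter fit.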

T1 sequence (P50750 whole entry): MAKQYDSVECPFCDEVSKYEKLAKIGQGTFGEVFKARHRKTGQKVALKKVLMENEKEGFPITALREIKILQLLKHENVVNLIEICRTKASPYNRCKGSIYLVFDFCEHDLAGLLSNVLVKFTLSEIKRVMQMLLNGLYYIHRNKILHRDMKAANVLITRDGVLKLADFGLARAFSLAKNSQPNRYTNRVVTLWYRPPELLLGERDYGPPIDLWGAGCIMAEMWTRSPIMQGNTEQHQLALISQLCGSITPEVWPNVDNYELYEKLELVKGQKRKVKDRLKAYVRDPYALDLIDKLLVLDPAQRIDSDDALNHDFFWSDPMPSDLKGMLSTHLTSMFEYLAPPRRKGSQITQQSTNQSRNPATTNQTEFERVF
T1 sequence (O60563 whole entry partner): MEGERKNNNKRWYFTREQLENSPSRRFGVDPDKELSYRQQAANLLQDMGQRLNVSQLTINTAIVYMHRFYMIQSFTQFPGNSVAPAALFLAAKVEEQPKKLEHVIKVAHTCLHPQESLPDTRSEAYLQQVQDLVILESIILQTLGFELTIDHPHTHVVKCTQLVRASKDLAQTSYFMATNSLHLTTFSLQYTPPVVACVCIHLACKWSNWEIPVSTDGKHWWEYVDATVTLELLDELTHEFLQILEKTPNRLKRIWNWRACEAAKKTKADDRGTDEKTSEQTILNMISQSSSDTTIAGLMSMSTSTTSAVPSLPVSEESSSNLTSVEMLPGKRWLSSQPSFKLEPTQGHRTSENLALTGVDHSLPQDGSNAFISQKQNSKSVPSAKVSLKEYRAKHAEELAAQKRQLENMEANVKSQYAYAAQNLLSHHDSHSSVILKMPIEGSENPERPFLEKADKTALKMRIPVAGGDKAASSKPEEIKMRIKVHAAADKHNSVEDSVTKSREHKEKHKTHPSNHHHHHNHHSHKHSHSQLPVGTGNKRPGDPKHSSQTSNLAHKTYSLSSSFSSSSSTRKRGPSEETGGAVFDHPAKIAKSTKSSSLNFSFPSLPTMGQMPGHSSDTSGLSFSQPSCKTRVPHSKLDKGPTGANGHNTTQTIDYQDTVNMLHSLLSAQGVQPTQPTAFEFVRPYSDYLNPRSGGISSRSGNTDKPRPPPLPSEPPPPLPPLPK

| pIC50 (CDK9/CycT1) | pIC50 ([1]; Homo sapiens, MDA-MB-231, 96 h) | pIC50 [1] | Structure (SMILES) |
| --- | --- | --- | --- |
| < 4.70 | 7.92 | – | C[C@@H]1CN(c2nc(NCc3nc4ccccc4[nH]3)n3ncc(C4CC4)c3n2)C[C@H](C)N1 [Example 248, N-[(1H-benzimidazol-2-yl)methyl]-8-cyclopropyl-2-[(3R,5S)-3,5-dimethylpiperazin-1-yl]pyrazolo[1,5-a][1,3,5]triazin-4-amine] |
| < 4.70 | 8.11 | – | Clc1cc2nc(CNc3nc(N4CCOCC4)nc4c(C5CC5)cnn34)[nH]c2cc1Cl [Example 301, 8-cyclopropyl-N-[(5,6-dichloro-1H-benzimidazol-2-yl)methyl]-2-(morpholin-4-yl)pyrazolo[1,5-a][1,3,5]triazin-4-amine] |
| < 4.70 | 7.04 | – | CC(C)CNc1nc(NCc2nc3ccccc3[nH]2)n2ncc(Br)c2n1 [Example 285, N^4-[(1H-benzimidazol-2-yl)methyl]-8-bromo-N^2-(2-methylpropyl)pyrazolo[1,5-a][1,3,5]triazine-2,4-diamine] |
| < 4.70 | – | 7.00 | CC1CN(C)CCN1c1nc(NCc2nc3ccccc3[nH]2)n2ncc(Br)c2n1 (single isomer, unassigned; enantiomer 2) [Example 261, N-(1H-benzimidazol-2-ylmethyl)-8-bromo-2-[(2R or S)-2,4-dimethylpiperazin-1-yl]pyrazolo[1,5-a][1,3,5]triazin-4-amine (Enantiomer 2)] |
| < 4.70 | 7.21 | – | Brc1cnn2c(NCc3nc4ccccc4[nH]3)nc(N3C[C@H]4CN[C@H]4C3)nc12.O=C(O)C(F)(F)F [Example 255, trifluoroacetic acid-N-[(1H-benzimidazol-2-yl)methyl]-8-bromo-2-[(1R,5R)-3,6-diazabicyclo[3.2.0]heptan-3-yl]pyrazolo[1,5-a][1,3,5]triazin-4-amine (1/1)] |
| < 4.70 | – | 7.87 | CC1CN(C)CCN1c1nc(NCc2nc3ccccc3[nH]2)n2ncc(Br)c2n1 (single isomer, unassigned; enantiomer 1) [Example 260, N-(1H-benzimidazol-2-ylmethyl)-8-bromo-2-[(2R or S)-2,4-dimethylpiperazin-1-yl]pyrazolo[1,5-a][1,3,5]triazin-4-amine (Enantiomer 1)] |
| < 4.70 | 6.92 | – | CN1CCN(c2nc(NCc3nc4ccccc4[nH]3)n3ncc(C4CC4)c3n2)CC1 [Example 246, N-[(1H-benzimidazol-2-yl)methyl]-8-cyclopropyl-2-(4-methylpiperazin-1-yl)pyrazolo[1,5-a][1,3,5]triazin-4-amine] |
| < 4.70 | 8.03 | – | Fc1ccc2[nH]c(CNc3nc(N4CCOCC4)nc4c(CC(F)(F)F)cnn34)nc2c1F [Example 268, N-[(4,5-difluoro-1H-benzimidazol-2-yl)methyl]-2-(morpholin-4-yl)-8-(2,2,2-trifluoroethyl)pyrazolo[1,5-a][1,3,5]triazin-4-amine] |
| < 4.70 | 7.76 | – | Fc1ccc2[nH]c(CNc3nc(N4CCOCC4)nc4c(C5CC5(F)F)cnn34)nc2c1F (stereo not drawn) [Example 278, N-[(4,5-difluoro-1H-benzimidazol-2-yl)methyl]-8-(2,2-difluorocyclopropyl)-2-(morpholin-4-yl)pyrazolo[1,5-a][1,3,5]triazin-4-amine] |
| < 4.70 | 7.26 | – | NC12CC1CN(c1nc(NCc3nc4ccccc4[nH]3)n3ncc(Br)c3n1)C2 (stereo not drawn) [Example 258, 2-(1-amino-3-azabicyclo[3.1.0]hexan-3-yl)-N-(1H-benzimidazol-2-ylmethyl)-8-bromo-pyrazolo[1,5-a][1,3,5]triazin-4-amine] |
| < 4.70 | 6.97 | – | Brc1cnn2c(NCc3nc4ccccc4[nH]3)nc(N3C[C@@H]4CN[C@@H]4C3)nc12.O=C(O)C(F)(F)F [Example 267, trifluoroacetic acid-N-[(1H-benzimidazol-2-yl)methyl]-8-bromo-2-[(1S,5S)-3,6-diazabicyclo[3.2.0]heptan-3-yl]pyrazolo[1,5-a][1,3,5]triazin-4-amine (1/1)] |

| Structure (SMILES) | pIC50 (CDK9/CycT1) | pIC50 ([1]; Homo sapiens, MDA-MB-231, 96 h) | pIC50 [1] |
| --- | --- | --- | --- |
| Fc1ccc2[nH]c(CNc3nc(N4CC5CCC(C4)N5)nc4c(C(F)(F)F)cnn34)nc2c1F [Example 310, 2-(3,8-diazabicyclo[3.2.1]octan-3-yl)-N-[(4,5-difluoro-1H-benzimidazol-2-yl)methyl]-8-(trifluoromethyl)pyrazolo[1,5-a][1,3,5]triazin-4-amine] | 5.07 | 8.46 | – |
